target: T1, Prothrombin (Homo sapiens, UniProt P00734); experiment: Compound was evaluated for inhibition of human thrombin at a concentration of 50 uM; Not active

SMILES | Ki
N=C(N)NCCC[C@H]1NC(=O)[C@H]2CCCN2C(=O)[C@H](CCc2ccccc2)NC(=O)CCCCCCCNC(=O)C1O (stereo not given in full) | Not Active

target: T1, Prothrombin; experiment: Inhibition of human thrombin

SMILES | Ki [µM]
N=C(N)NCCC[C@H]1NC(=O)[C@H]2CCCN2C(=O)[C@H](Cc2ccccc2)NC(=O)CCCCCCCCCNC(=O)C1=O (single isomer, unassigned) | 0.0099
N=C(N)NCCC[C@H]1NC(=O)[C@H]2CCCN2C(=O)[C@H](Cc2ccccc2)NC(=O)CCCCCNC(=O)[C@H](CC(c2ccccc2)c2ccccc2)NC(=O)C1=O (single isomer, unassigned) | 0.0053
N=C(N)NCCC[C@H]1NC(=O)[C@H]2CCCN2C(=O)[C@H](Cc2ccccc2)NC(=O)CCCCCCCNC(=O)C1=O (single isomer, unassigned) | 0.024
N=C(N)NCCC[C@H]1NC(=O)[C@H]2CCCN2C(=O)[C@H](NC=O)CNC(=O)/C=C\[C@@H](Cc2ccc(O)cc2)NC(=O)[C@H](Cc2ccccc2)NC(=O)C1=O [MACROCYCLIC TRIPEPTIDE MOTIF] | 0.0041
COC1C[C@@H]2C(=O)N[C@H](CCCN=C(N)N)C(=O)C(=O)NCCCCCCCC(=O)N[C@@H](Cc3ccccc3)C(=O)N2C1 (stereo not given in full) | 0.159
N=C(N)NCCC[C@H]1NC(=O)[C@H]2CCCN2C(=O)[C@H](CCc2ccccc2)NC(=O)CCCCCCCNC(=O)C1=O (single isomer, unassigned) | 0.02
N=C(N)NCCC[C@H]1NC(=O)[C@H]2CCCN2C(=O)[C@H](Cc2ccccc2)NC(=O)CCCCCNC(=O)[C@H](CCc2ccccc2)NC(=O)C1=O (single isomer, unassigned) | 0.0031

Further lines, results first:

Ki [µM] | SMILES
0.086 | N=C(N)NCCC[C@H]1NC(=O)[C@H]2CCCCN2C(=O)[C@H](Cc2ccccc2)NC(=O)CCCCCCCNC(=O)C1=O (single isomer, unassigned)
0.473 | N=C(N)NCCC[C@H]1NC(=O)[C@H]2CCCN2C(=O)[C@H](Cc2ccccc2)NC(=O)CCCCCNC(=O)C1=O (single isomer, unassigned)
0.015 | N=C(N)NCCC[C@H]1NC(=O)[C@H]2CCCN2C(=O)[C@H](Cc2ccccc2)NC(=O)CCCCCCCCCCNC(=O)C1=O (single isomer, unassigned)
0.163 | N=C(N)NCCC[C@H]1NC(=O)[C@H]2CCCN2C(=O)[C@H](c2ccccc2)NC(=O)CCCCCCCNC(=O)C1=O (single isomer, unassigned)
1.8 | N=C(N)NCCC[C@H]1NC(=O)[C@H]2CCCN2C(=O)[C@H](Cc2ccccc2)NC(=O)CCCCCCNC(=O)C1=O (single isomer, unassigned)

target: T2, Serine protease 1 (Bos taurus, UniProt P00760); experiment: Inhibition of bovine trypsin
T2 sequence (P00760 whole entry): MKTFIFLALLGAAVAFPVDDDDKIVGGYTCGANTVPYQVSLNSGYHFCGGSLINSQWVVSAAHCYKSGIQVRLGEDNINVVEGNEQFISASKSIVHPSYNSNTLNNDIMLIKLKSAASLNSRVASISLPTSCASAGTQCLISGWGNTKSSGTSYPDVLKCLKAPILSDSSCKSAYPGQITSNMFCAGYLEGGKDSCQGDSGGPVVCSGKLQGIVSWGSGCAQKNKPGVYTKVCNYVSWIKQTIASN

SMILES | Ki [µM]
N=C(N)NCCC[C@@H]1NC(=O)[C@@H]2CCCN2C(=O)[C@@H](Cc2ccccc2)NC(=O)CCCCCNC(=O)[C@@H](CC(c2ccccc2)c2ccccc2)NC(=O)C1=O (single isomer, unassigned) | 0.0025
N=C(N)NCCC[C@@H]1NC(=O)[C@@H]2CCCN2C(=O)[C@@H](Cc2ccccc2)NC(=O)CCCCCNC(=O)[C@@H](CCc2ccccc2)NC(=O)C1=O (single isomer, unassigned) | 0.0052
N=C(N)NCCC[C@@H]1NC(=O)[C@@H]2CCCN2C(=O)[C@@H](NC=O)CNC(=O)/C=C\[C@@H](Cc2ccc(O)cc2)NC(=O)[C@@H](Cc2ccccc2)NC(=O)C1=O [MACROCYCLIC TRIPEPTIDE MOTIF] | 0.001
COC1C[C@@H]2C(=O)N[C@H](CCCN=C(N)N)C(=O)C(=O)NCCCCCCCC(=O)N[C@@H](Cc3ccccc3)C(=O)N2C1 (stereo not given in full) | 0.013

Continued, values first:

Ki [µM] | SMILES
0.011 | N=C(N)NCCC[C@@H]1NC(=O)[C@@H]2CCCN2C(=O)[C@@H](c2ccccc2)NC(=O)CCCCCCCNC(=O)C1=O (single isomer, unassigned)
0.28 | N=C(N)NCCC[C@@H]1NC(=O)[C@@H]2CCCN2C(=O)[C@@H](Cc2ccccc2)NC(=O)CCCCCCNC(=O)C1=O (single isomer, unassigned)
0.71 | N=C(N)NCCC[C@@H]1NC(=O)[C@@H]2CCCN2C(=O)[C@@H](Cc2ccccc2)NC(=O)CCCCCNC(=O)C1=O (single isomer, unassigned)
0.025 | N=C(N)NCCC[C@@H]1NC(=O)[C@@H]2CCCN2C(=O)[C@@H](Cc2ccccc2)NC(=O)CCCCCCCCCCNC(=O)C1=O (single isomer, unassigned)
0.01 | N=C(N)NCCC[C@@H]1NC(=O)[C@@H]2CCCN2C(=O)[C@@H](Cc2ccccc2)NC(=O)CCCCCCCNC(=O)C1=O (single isomer, unassigned)
0.0021 | N=C(N)NCCC[C@@H]1NC(=O)[C@@H]2CCCN2C(=O)[C@@H](Cc2ccccc2)NC(=O)CCCCCCCCCNC(=O)C1=O (single isomer, unassigned)
0.066 | N=C(N)NCCC[C@@H]1NC(=O)[C@@H]2CCCCN2C(=O)[C@@H](Cc2ccccc2)NC(=O)CCCCCCCNC(=O)C1=O (single isomer, unassigned)
0.014 | N=C(N)NCCC[C@@H]1NC(=O)[C@@H]2CCCN2C(=O)[C@@H](CCc2ccccc2)NC(=O)CCCCCCCNC(=O)C1=O (single isomer, unassigned)
